Assay results from patent US12509435B2, “Compounds for selective binding to estrogen receptors alpha/beta relative to GPER/GPR30 and methods of treating disease states and conditions mediated through these receptors” (UNM RAINFOREST INNOVATIONS, priority 2019, dated 2025).
Changes are numbered by the printed parent chain.

What was measured:
Type in all cases: cell-based
[1] = system: Tamoxifen-resistant MCF-7 cells (TamR) and long-term estrogen-deprived MCF-7 cells (LTED); assay: Cell viability in cell line models of endocrine resistance after 5 days; settings: TamR and LTED MCF-7 cells, normalized to DMSO-treated cells
Excerpt: Cells were a gift from Dr. Donald McDonnell (Duke University).

ERα-Y537S = biological target: T1, ERα-Y537S (Homo sapiens, UniProt P03372, Y537S); assay: Degradation of HA-ERα-Y537S mutant in transfected HEK293 cells, Western blot; settings: HEK293 cells transfected with HA-ERα-Y537S, Western blot relative to actin
T1 construct: host or cells: HEK293
T1 sequence (P03372 1-595 Y537S): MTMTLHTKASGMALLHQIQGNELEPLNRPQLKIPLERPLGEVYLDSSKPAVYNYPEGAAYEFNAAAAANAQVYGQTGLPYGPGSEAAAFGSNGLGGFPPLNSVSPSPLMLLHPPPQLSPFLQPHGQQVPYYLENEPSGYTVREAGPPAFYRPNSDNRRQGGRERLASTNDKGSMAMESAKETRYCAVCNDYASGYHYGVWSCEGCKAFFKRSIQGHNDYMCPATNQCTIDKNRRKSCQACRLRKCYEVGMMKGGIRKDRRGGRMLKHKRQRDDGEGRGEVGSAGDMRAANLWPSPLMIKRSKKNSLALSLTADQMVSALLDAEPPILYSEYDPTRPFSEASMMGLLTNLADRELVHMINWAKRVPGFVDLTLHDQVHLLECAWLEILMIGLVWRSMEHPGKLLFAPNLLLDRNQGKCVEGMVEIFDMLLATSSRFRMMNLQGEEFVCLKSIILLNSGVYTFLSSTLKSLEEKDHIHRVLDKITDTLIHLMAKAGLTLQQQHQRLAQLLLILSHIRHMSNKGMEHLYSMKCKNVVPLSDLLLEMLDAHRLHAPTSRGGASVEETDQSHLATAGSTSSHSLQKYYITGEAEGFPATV
Excerpt: HEK293 cells transfected with the HA-ERα-Y537S mutant were stimulated with the indicated compounds and HA-ERα-Y537S protein levels assessed by Western blot (left) and quantitated relative to actin (right).

ERα = biological target: T2, ERα (Homo sapiens, UniProt P03372); assay: Degradation of ERα in MCF-7 cells, Western blot; settings: indicated concentrations
T2 construct: endogenous in cells; host or cells: MCF-7
T2 sequence (P03372 1-595): T1 sequence (P03372 1-595 Y537S) with S537Y
Method: MCF-7 were treated with the indicated compounds and ERα protein levels were assessed by Western blot (top panel). Actin served as a loading control (bottom panel). Quantification of the western blot is shown on the right.

- degradation of HA-ERα-Y537S protein levels (ERα-Y537S): induced degradation of ERα-Y537S
- degradation of ERα protein levels (ERα): Dose-dependent degradation of ERα
SMILES: CCCCN(C)C(=O)CCCCCCCCCCCC1=CCC2(CO)COC(c3ccc(O)cc3)C1C2 (stereo not drawn) [AB-82P, N-butyl-12-(1-(hydroxymethyl)-4-(4-hydroxyphenyl)-3-oxabicyclo[3.3.1]non-6-en-6-yl)-N-methyldodecanamide]
- effect on cell viability in models of endocrine resistance [1]: inhibitory effects
